Legend:
[1] = test system: Monocotyledonous and dicotyledonous test plants; assay: Example B3: herbicidal action prior to emergence (pre-emergence), 96-cell seed trays, 1000 g/ha; type: in vivo; set-up: key: 0 is no damage to plant; 5 is total damage to plant; details: 9 days after application
In short: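 Soil-surface pre-emergence spray at 1000 g/ha in water with 10% DMSO (1000 l/ha equivalent), applied one day after sowing in sterilised soil. Plants kept in a climatic chamber (24/19 °C day/night, 13 h light, 50-60% humidity); damage scored visually 0-5 at 9 days after application.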

[2] = test system: Monocotyledonous and dicotyledonous test plants; assay: Example B1: herbicidal action prior to emergence (pre-emergence), 500 g/ha; type: in vivo; details: 13 days after application, 0 = no damage, 100 = plants completely dead; for ALOMY herbicidal effect (visual assessment, percentage scale): Alopecurus myosuroides (slender foxtail); for AMARE herbicidal effect (visual assessment, percentage scale): Amaranthus retroflexus (redroot pigweed); for ECHCG herbicidal effect (visual assessment, percentage scale): Echinochloa crus-galli (barnyard grass); for STEME herbicidal effect (visual assessment, percentage scale): Stellaria media (chickweed)
In short: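 Pre-emergence test with monocot and dicot species sown in standard compost. Compound was track-sprayed onto the soil surface at 500 g/ha in 50% acetone/water with 0.5% Tween 20 (1000 l/ha equivalent). Damage was scored visually 13 days after application on a 0–100% scale, where 100 means plants completely dead.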

[3] = test system: Amaranthus retroflexus (redroot pigweed); assay: Example B2: herbicidal action post emergence, 500 g/ha; type: in vivo; details: applied to the foliage, 13 days after application, 0 is no damage to plants, 100 is plants completely dead
Method: (§1) Monocotyledonous and dicotyledonous test plants were sown in seed trays in standard compost and were grown for eight days. The trays were watered twice daily or as required. The chemicals were applied by track sprayer to the foliage. The application was carried out with an aqueous suspension of the test substances, prepared as a formulation of 50% acetone in water with 0.5% Tween 20™ (CAS RN 9005-64-5), to achieve a field equivalent of 1000 l/ha. The application rate of the test substances was 500 g/ha. A visual assessment of the herbicidal effect was made at 13 days after application. The following percentage scale was used for assessment: 0, 5, 10, 20, 30, 40, 50, 60, 70, 80, 90, 95, 100 (where O is no damage to plants and 100 is plants are completely dead).

[4] = test system: Stellaria media (chickweed); assay: as above; type: in vivo; details: applied to the foliage, 13 days after application, 0 is no damage to plants, 100 is plants completely dead
Method: as §1

[5] = test system: Alopecurus myosuroides (slender foxtail); assay: as above; type: in vivo; details: applied to the foliage, 13 days after application, 0 is no damage to plants, 100 is plants completely dead
Method: as §1

[6] = test system: Echinochloa crus-galli (barnyard grass); assay: as above; type: in vivo; details: applied to the foliage, 13 days after application, 0 is no damage to plants, 100 is plants completely dead
Method: as §1

`Cn1nc(C(F)(F)F)c(CSc2ncc(C(N)=O)s2)c1OCC(F)(F)F` [1.121, 2-[1-methyl-5-(2,2,2-trifluoro-ethoxy)-3-trifluoromethyl-1H-pyrazol-4-ylmethylsulfanyl]-thiazole-5-carboxylic acid amide] gave a melting point of 118 to 120 °C.
`Cn1nc(C(F)(F)F)c(C(F)(F)S(=O)(=O)c2ncc(Br)s2)c1Cl` [Compound No. 1.033, 5-bromo-2-[(5-chloro-1-methyl-3-trifluoromethyl-1H-pyrazol-4-yl)-difluoro-methanesulfonyl]-thiazole] gave a melting point of 186 to 188 °C.
In the case of `CC(c1c(C(F)(F)F)nn(C)c1OCC(F)(F)F)S(=O)(=O)c1ncc(Cl)s1` (racemic) [1.096], the “AGSTE herbicidal effect (visual assessment, scale 0-5)” value ([1]; Agrostis tenius (Colonial bentgrass)) was 5, the “AMARE herbicidal effect (visual assessment, scale 0-5)” value ([1]; Amaranthus retroflexus (redroot pigweed)) was 5 and the “DIGSA herbicidal effect (visual assessment, scale 0-5)” value ([1]; Digitaria sanguinalis (hairy finger-grass)) was 5. For the same compound, the “POATR herbicidal effect (visual assessment, scale 0-5)” value ([1]; Poa trivialis (rough blue grass)) was 5, the “SETIT herbicidal effect (visual assessment, scale 0-5)” value ([1]; Setaria italica (foxtail millet)) was 5 and the “ALOMY herbicidal effect (visual assessment, percentage scale)” value [2] was 95%. For the same compound, the “AMARE herbicidal effect (visual assessment, percentage scale)” value [2] was 95%, the “ECHCG herbicidal effect (visual assessment, percentage scale)” value [2] was 95% and the “STEME herbicidal effect (visual assessment, percentage scale)” value [2] was 95%. For the same compound, the “AMARE, visual assessment of the herbicidal effect” value (from here on “AMARE, visual assessment”) [3] was 80%, the “STEME, visual assessment of the herbicidal effect” value (“STEME, visual assessment” for short) [4] was 70% and the “ALOMY, visual assessment of the herbicidal effect” value (“ALOMY, visual assessment” for short) [5] was 90%. The “ECHCG, visual assessment of the herbicidal effect” value (“ECHCG, visual assessment” for short) [6] was 80%.
Compound `Cn1nc(C(F)(F)F)c(C(Cl)S(=O)(=O)c2ncc(Br)s2)c1Cl` (stereo not drawn) [Compound No. 1.030, 5-bromo-2-[chloro-(5-chloro-1-methyl-3-trifluoromethyl-1H-pyrazol-4-yl)-methanesulfonyl]-thiazole] has a melting point of 78 to 79.5 °C.
With `COCCOc1c(CS(=O)(=O)c2ncc(Cl)s2)c(C(F)(F)F)nn1C` [1.052] the “ALOMY herbicidal effect (visual assessment, percentage scale)” value [2] was 80%, the “AMARE herbicidal effect (visual assessment, percentage scale)” value [2] was 100% and the “ECHCG herbicidal effect (visual assessment, percentage scale)” value [2] was 95%. For the same compound, the “STEME herbicidal effect (visual assessment, percentage scale)” value [2] was 90%, the “AMARE, visual assessment” value [3] was 50% and the “STEME, visual assessment” value [4] was 10%. The “ALOMY, visual assessment” value [5] was 80% and the “ECHCG, visual assessment” value [6] was 70%.
In the case of `Cn1nc(C(F)(F)F)c(C[S+]([O-])c2ncc(Br)s2)c1OCC(F)(F)F` (stereo not drawn) [Compound No. 1.002, 5-bromo-2-[1-methyl-5-(2,2,2-trifluoroethoxy)-3-trifluoromethyl-1H-pyrazol-4-ylmethanesulfinyl]-thiazole], the “ALOMY herbicidal effect (visual assessment, percentage scale)” value [2] was 95%, the “AMARE herbicidal effect (visual assessment, percentage scale)” value [2] was 100% and the “ECHCG herbicidal effect (visual assessment, percentage scale)” value [2] was 95%. For the same compound, the “STEME herbicidal effect (visual assessment, percentage scale)” value [2] was 100%, the “AMARE, visual assessment” value [3] was 95% and the “STEME, visual assessment” value [4] was 90%. For the same compound, the “ALOMY, visual assessment” value [5] was 95% and the “ECHCG, visual assessment” value [6] was 95%.
In the case of `CCOc1c(CS(=O)(=O)c2ncc(Br)s2)c(C(F)(F)F)nn1C` [1.023], the “ALOMY herbicidal effect (visual assessment, percentage scale)” value [2] was 50%, the “AMARE herbicidal effect (visual assessment, percentage scale)” value [2] was 100% and the “ECHCG herbicidal effect (visual assessment, percentage scale)” value [2] was 90%. The “STEME herbicidal effect (visual assessment, percentage scale)” value [2] was 30%, the “AMARE, visual assessment” value [3] was 80% and the “STEME, visual assessment” value [4] was 20%. For the same compound, the “ALOMY, visual assessment” value [5] was 70% and the “ECHCG, visual assessment” value [6] was 80%.
For `COCCOc1c(C[S+]([O-])c2ncc(Cl)s2)c(C(F)(F)F)nn1C` (racemic) [1.051], the “ALOMY herbicidal effect (visual assessment, percentage scale)” value [2] was 80%, the “AMARE herbicidal effect (visual assessment, percentage scale)” value [2] was 100% and the “ECHCG herbicidal effect (visual assessment, percentage scale)” value [2] was 70%. The “STEME herbicidal effect (visual assessment, percentage scale)” value [2] was 100%, the “AMARE, visual assessment” value [3] was 70% and the “STEME, visual assessment” value [4] was 70%. For the same compound, the “ALOMY, visual assessment” value [5] was 70% and the “ECHCG, visual assessment” value [6] was 80%.
With `Cn1nc(C(F)(F)F)c(CS(=O)(=O)c2ncc(Cl)s2)c1OC(F)F` [1.058] the “ALOMY herbicidal effect (visual assessment, percentage scale)” value [2] was 30%, the “AMARE herbicidal effect (visual assessment, percentage scale)” value [2] was 100% and the “ECHCG herbicidal effect (visual assessment, percentage scale)” value [2] was 95%. The “STEME herbicidal effect (visual assessment, percentage scale)” value [2] was 10%, the “AMARE, visual assessment” value [3] was 80% and the “STEME, visual assessment” value [4] was 0%. The “ALOMY, visual assessment” value [5] was 60% and the “ECHCG, visual assessment” value [6] was 70%.
For `Cn1nc(C(F)(F)F)c(C[S+]([O-])c2ncc(Br)s2)c1OCC(F)F` (racemic) [1.025], the “ALOMY herbicidal effect (visual assessment, percentage scale)” value [2] was 95%, the “AMARE herbicidal effect (visual assessment, percentage scale)” value [2] was 100% and the “ECHCG herbicidal effect (visual assessment, percentage scale)” value [2] was 95%. The “STEME herbicidal effect (visual assessment, percentage scale)” value [2] was 90%, the “AMARE, visual assessment” value [3] was 80% and the “STEME, visual assessment” value [4] was 90%. For the same compound, the “ALOMY, visual assessment” value [5] was 70% and the “ECHCG, visual assessment” value [6] was 80%.
In the case of `Cn1nc(C(F)(F)F)c(CS(=O)(=O)c2ncc(Br)s2)c1OCC(F)F` [1.026], the “ALOMY herbicidal effect (visual assessment, percentage scale)” value [2] was 60%, the “AMARE herbicidal effect (visual assessment, percentage scale)” value [2] was 90% and the “ECHCG herbicidal effect (visual assessment, percentage scale)” value [2] was 95%. For the same compound, the “STEME herbicidal effect (visual assessment, percentage scale)” value [2] was 0%, the “AMARE, visual assessment” value [3] was 60% and the “STEME, visual assessment” value [4] was 0%. The “ALOMY, visual assessment” value [5] was 70% and the “ECHCG, visual assessment” value [6] was 70%.
